According to patent publication US20100022476A1, “PYRAZOLYLAMINO SUBSTITUTED QUINAZOLES FOR THE TREATMENT OF CANCER” (ASTRAZENECA AB, priority 2004, published 2010):

Columns and labels:
[1] = tested on: SW620 human colon tumour cells; experiment: In vitro cell phenotype and substrate phosphorylation assay (phosphohistone H3); assay type: cell-based; conditions: SW-620, 24 hours of treatment, read-out: EC50 for inhibition of phosphohistone H3 levels
Protocol: (c) In Vitro Cell Phenotype and Substrate Phosphorylation Assay
This assay is used to determine the cellular effects of compounds on SW620 human colon tumour cells in vitro. Compounds typically cause inhibition of levels of phosphohistone H3 and an increase in the nuclear area of the cells.
10^4 SW620 cells per well were plated in 100 μl DMEM media (containing 10% FCS and 1% glutamine) (DMEM is Dulbecco's Modified Eagle's Medium (Sigma D6546)) in costar 96 well plates and left overnight at 37° C. and 5% CO2 to adhere. The cells were then dosed with compound diluted in media (50 μl is added to each well to give 0.00015μ-1 μM concentrations of compound) and after 24 hours of treatment with compound, the cells were fixed.
The cells were first examined using a light microscope and any cellular changes in morphology were noted. 100 μl of 3.7% formaldehyde was then added to each well, and the plate was left for at least 30 minutes at room temperature. Decanting and tapping the plate on a paper towel removed the fixative and plates were then washed once in PBS (Dulbecco's Phosphate Buffered Saline (Sigma D8537)) using an automated plate washer. […]
The next day, the antibody was tipped off and the plates were washed twice with PBS. […] 100 μl PBS was added to each well and the plates were sealed ready to analyse. […]

[2] = Plasma protein binding assay (equilibrium dialysis); assay type: in vitro ADME; conditions: human plasma, 20 μM compound, dialysed 18 hours at 37° C.
Protocol: (e) Plasma Protein Binding Assay
Plasma protein binding was measured using the equilibrium dialysis technique. Compound was added to human plasma to a concentration of 20 μM and dialysed with isotonic phosphate/sodium chloride buffer for 18 hours at 37° C. The plasma and buffer solutions on each side of the dialysis membrane were analysed using a generic LCUVMS (Waters 2795 HPLC with Micromass ZQ mass spectrometer) and the percentage of free compound in 100% plasma was determined.

[3] = tested on: drug-resistant MCF7-ADR human breast tumour cells; experiment: In vitro drug-resistant cell phenotype and substrate phosphorylation assay (phosphohistone H3); assay type: cell-based; conditions: NCI/ADR-RES, MCF7-ADR cells overexpressing drug-resistant proteins, read-out: EC50 for inhibition of phosphohistone H3 levels
Protocol: (d) In Vitro Drug-Resistant Cell Phenotype and Substrate Phosphorylation Assay.
This assay is used to determine the cellular effects of compounds on drug-resistant MCF7-ADR human breast tumour cells in vitro.
Compounds typically cause inhibition of levels of phosphohistoneH3 and an increase in the nuclear area of treated cells.
0.8×10^4 MCF7-ADR cells per well were plated in 100 μl DMEM media (containing 10% FCS (foetal calf serum) and 1% glutamine) in costar 96 well plates and left overnight at 37° C. and 5% CO2 to adhere.
All other procedures are identical to those for the above assay using SW620 cells.

With `COc1cc(OCCN(C)CCO)c2c(Nc3cc(CC(=O)Nc4cccc(F)c4F)[nH]n3)ncnc2c1` [Compound 9, N-(2,3-difluorophenyl)-2-{3-[(5-{2-[(2-hydroxyethyl)(methyl)amino]ethoxy}-7-methoxyquinazolin-4-yl)amino]-1H-pyrazol-5-yl}acetamide] the EC50 [1] was 7.6 nM, the “percentage of free compound in 100% plasma” value [2] was 3.9% and the EC50 [3] was 400 nM.
